# Assay results reported in patent US5556859A, “N-(4-pyrimidinyl)amide pesticides” (DowElanco, priority 1994, dated 1996).
# System: tobacco budworm (Heliothis virescens)
# Assay: Activity against tobacco budworm (TBW)
# Format: in vivo
# Conditions: 144 h, read-out: percent mortality, TBW
# Description: In conducting evaluations of insecticidal activity, each test compound was formulated as a 400 ppm solution, and this solution was then diluted with water to give lesser concentrations. The 400 ppm solution was prepared by combining 19.2 mL of 0.05% solution of Tween 20 (polyoxyethylene (20) sorbitan monolaurate) in water with a solution of 8 mg of the compound in 0.8 mL of acetone/EtOH (9/1).
# Activity against tobacco budworm (Heliothis virescens) was evaluated as follows. A general purpose lepidoptera artificial diet was diluted to half strength with a 5% non nutritive agar. 8 mL of this diet material was dispensed into each one ounce diet cup. One hour prior to treatment 18 to 20 eggs were dispensed onto the diet surface. The cups were then sprayed with formulated material through a flat-fan nozzle. The test was run using concentrations of 400 ppm and 50 ppm. Treated cups were air dried prior to sealing with plastic caps. The cups were held for 6 days at room temperature. Activity was then rated based on the total number of live and dead larvae, and on the size of live larvae.
row,Compound,mortality at 400 ppm [%]
1,"CC(C)(C)c1nccc(NC(=O)Cc2ccc(Oc3ccc(F)cc3)cc2)n1 [Compound 25, 4-(4-fluorophenoxy)phenyl-N-(2-(1,1-dimethylethyl)-4-pyrimidinyl)acetamide]",100
2,"CCCCCCCCC(C)C(=O)Nc1ccnc(CC)n1 (stereo not shown) [Compound 33, N-(2-ethyl-4-pyrimidinyl)-2 methyldecamide]",0
3,CCCCCCCCCCCCCCCCCC(=O)Nc1ccnc(CC)n1 [Compound 34],0
4,"C=C(C)c1nccc(NC(=O)Cc2ccc(Oc3ccc(F)cc3)cc2)n1 [Compound 27, 4-(4-fluorophenoxy)phenyl-N-(2-(1-methylethenyl)-4-pyrimidinyl)acetamide]",0
5,"CCc1nccc(NC(=O)Cc2ccc(Oc3ccc(C(C)=O)cc3)cc2)n1 [Compound 49, 4-(4-acetylphenoxy)phenyl-N-(2-ethyl-4-pyrimidinyl)acetamide]",40
6,"CCCCc1nccc(NC(=O)Cc2ccc(OCC(F)(F)F)cc2)n1 [Compound 20, 4-(2,2,2-trifluroethoxy)phenyl-N-(2-butyl-4-pyrimidinyl)acetamide]",0
7,"O=C(Cc1ccc(Oc2ccc(F)cc2)cc1)Nc1ccnc(C2CCC2)n1 [Compound 23, 4-(4-fluorophenoxy)phenyl-N-(2-cyclobutyl-4-pyrimidinyl)acetamide]",100
8,CCc1nccc(NC(=O)Cc2ccc(-c3ccccc3)cc2)n1 [Compound 40],40
9,"CCc1nccc(NC(=O)Cc2ccc(Oc3ccc(Cl)cn3)cc2)n1 [Compound 37, 4-(5-chloro-2-pyridinyloxy)phenyl-N-(2-ethyl-4-pyrimidinyl)acetamide]",100
10,"CCc1nccc(NC(=O)Cc2ccc(OC(F)F)cc2)n1 [Compound 42, 4-difluromethoxy-N-(2-ethyl-4-pyrimidinyl)acetamide]",0
11,"CCc1nccc(NC(=O)Cc2ccc(OCC(F)(F)C(F)F)cc2)n1 [Compound 43, 4-(2,2,3,3-tetrafluropropoxy)phenyl-N-(2-ethyl-4-pyrimidinyl)acetamide]",60
12,"CCCCCc1ccc(CC(=O)Nc2ccnc(CC)n2)cc1 [Compound 41, 4-pentylphenyl-N-(2-ethyl-4-pyrimidinyl)acetamide]",40
13,"CCCCOc1ccc(CC(=O)Nc2ccnc(CC)n2)cc1 [Compound 44, 4-butoxyphenyl-N-(2-ethyl-4-pyrimidinyl)acetamide]",0

# System: beet armyworm (Spodoptera exiqua)
# Assay: whole plant or invertebrate
# Conditions: 144 h, read-out: percent mortality, BAW
row,Compound,mortality at 400 ppm [%]
1,"CC(C)(C)c1nccc(NC(=O)Cc2ccc(Oc3ccc(F)cc3)cc2)n1 [Compound 25, 4-(4-fluorophenoxy)phenyl-N-(2-(1,1-dimethylethyl)-4-pyrimidinyl)acetamide]",100
2,"CCCCCCCCC(C)C(=O)Nc1ccnc(CC)n1 (stereo not shown) [Compound 33, N-(2-ethyl-4-pyrimidinyl)-2 methyldecamide]",0
3,CCCCCCCCCCCCCCCCCC(=O)Nc1ccnc(CC)n1 [Compound 34],0
4,"C=C(C)c1nccc(NC(=O)Cc2ccc(Oc3ccc(F)cc3)cc2)n1 [Compound 27, 4-(4-fluorophenoxy)phenyl-N-(2-(1-methylethenyl)-4-pyrimidinyl)acetamide]",0
5,"CCc1nccc(NC(=O)Cc2ccc(Oc3ccc(C(C)=O)cc3)cc2)n1 [Compound 49, 4-(4-acetylphenoxy)phenyl-N-(2-ethyl-4-pyrimidinyl)acetamide]",100
6,"CCCCc1nccc(NC(=O)Cc2ccc(OCC(F)(F)F)cc2)n1 [Compound 20, 4-(2,2,2-trifluroethoxy)phenyl-N-(2-butyl-4-pyrimidinyl)acetamide]",100
7,"O=C(Cc1ccc(Oc2ccc(F)cc2)cc1)Nc1ccnc(C2CCC2)n1 [Compound 23, 4-(4-fluorophenoxy)phenyl-N-(2-cyclobutyl-4-pyrimidinyl)acetamide]",100
8,CCc1nccc(NC(=O)Cc2ccc(-c3ccccc3)cc2)n1 [Compound 40],20
9,"CCc1nccc(NC(=O)Cc2ccc(Oc3ccc(Cl)cn3)cc2)n1 [Compound 37, 4-(5-chloro-2-pyridinyloxy)phenyl-N-(2-ethyl-4-pyrimidinyl)acetamide]",100
10,"CCc1nccc(NC(=O)Cc2ccc(OC(F)F)cc2)n1 [Compound 42, 4-difluromethoxy-N-(2-ethyl-4-pyrimidinyl)acetamide]",40
11,"CCc1nccc(NC(=O)Cc2ccc(OCC(F)(F)C(F)F)cc2)n1 [Compound 43, 4-(2,2,3,3-tetrafluropropoxy)phenyl-N-(2-ethyl-4-pyrimidinyl)acetamide]",60
12,"CCCCCc1ccc(CC(=O)Nc2ccnc(CC)n2)cc1 [Compound 41, 4-pentylphenyl-N-(2-ethyl-4-pyrimidinyl)acetamide]",100
13,"CCCCOc1ccc(CC(=O)Nc2ccnc(CC)n2)cc1 [Compound 44, 4-butoxyphenyl-N-(2-ethyl-4-pyrimidinyl)acetamide]",100

# System: cotton aphid (Aphis gossypii)
# Assay: whole plant or invertebrate
# Conditions: 72 h, read-out: percent mortality, CA
row,Compound,mortality at 400 ppm [%]
1,"CC(C)(C)c1nccc(NC(=O)Cc2ccc(Oc3ccc(F)cc3)cc2)n1 [Compound 25, 4-(4-fluorophenoxy)phenyl-N-(2-(1,1-dimethylethyl)-4-pyrimidinyl)acetamide]",100
2,"CCCCCCCCC(C)C(=O)Nc1ccnc(CC)n1 (stereo not shown) [Compound 33, N-(2-ethyl-4-pyrimidinyl)-2 methyldecamide]",80
3,CCCCCCCCCCCCCCCCCC(=O)Nc1ccnc(CC)n1 [Compound 34],0
4,"C=C(C)c1nccc(NC(=O)Cc2ccc(Oc3ccc(F)cc3)cc2)n1 [Compound 27, 4-(4-fluorophenoxy)phenyl-N-(2-(1-methylethenyl)-4-pyrimidinyl)acetamide]",100
5,"CCc1nccc(NC(=O)Cc2ccc(Oc3ccc(C(C)=O)cc3)cc2)n1 [Compound 49, 4-(4-acetylphenoxy)phenyl-N-(2-ethyl-4-pyrimidinyl)acetamide]",100
6,"CCCCc1nccc(NC(=O)Cc2ccc(OCC(F)(F)F)cc2)n1 [Compound 20, 4-(2,2,2-trifluroethoxy)phenyl-N-(2-butyl-4-pyrimidinyl)acetamide]",0
7,"O=C(Cc1ccc(Oc2ccc(F)cc2)cc1)Nc1ccnc(C2CCC2)n1 [Compound 23, 4-(4-fluorophenoxy)phenyl-N-(2-cyclobutyl-4-pyrimidinyl)acetamide]",100
8,CCc1nccc(NC(=O)Cc2ccc(-c3ccccc3)cc2)n1 [Compound 40],60
9,"CCc1nccc(NC(=O)Cc2ccc(Oc3ccc(Cl)cn3)cc2)n1 [Compound 37, 4-(5-chloro-2-pyridinyloxy)phenyl-N-(2-ethyl-4-pyrimidinyl)acetamide]",0
10,"CCc1nccc(NC(=O)Cc2ccc(OC(F)F)cc2)n1 [Compound 42, 4-difluromethoxy-N-(2-ethyl-4-pyrimidinyl)acetamide]",100
11,"CCc1nccc(NC(=O)Cc2ccc(OCC(F)(F)C(F)F)cc2)n1 [Compound 43, 4-(2,2,3,3-tetrafluropropoxy)phenyl-N-(2-ethyl-4-pyrimidinyl)acetamide]",100
12,"CCCCCc1ccc(CC(=O)Nc2ccnc(CC)n2)cc1 [Compound 41, 4-pentylphenyl-N-(2-ethyl-4-pyrimidinyl)acetamide]",100
13,"CCCCOc1ccc(CC(=O)Nc2ccnc(CC)n2)cc1 [Compound 44, 4-butoxyphenyl-N-(2-ethyl-4-pyrimidinyl)acetamide]",100

# System: peanut root knot nematode (Meloidogyne arenaria)
# Assay: whole plant or invertebrate
# Conditions: in Arachis hypogaea, read-out: percent mortality, RKN
row,Compound,mortality at 400 ppm [%]
1,"CC(C)(C)c1nccc(NC(=O)Cc2ccc(Oc3ccc(F)cc3)cc2)n1 [Compound 25, 4-(4-fluorophenoxy)phenyl-N-(2-(1,1-dimethylethyl)-4-pyrimidinyl)acetamide]",100
2,"CCCCCCCCC(C)C(=O)Nc1ccnc(CC)n1 (stereo not shown) [Compound 33, N-(2-ethyl-4-pyrimidinyl)-2 methyldecamide]",0
3,CCCCCCCCCCCCCCCCCC(=O)Nc1ccnc(CC)n1 [Compound 34],0
4,"C=C(C)c1nccc(NC(=O)Cc2ccc(Oc3ccc(F)cc3)cc2)n1 [Compound 27, 4-(4-fluorophenoxy)phenyl-N-(2-(1-methylethenyl)-4-pyrimidinyl)acetamide]",0
5,"CCCCc1nccc(NC(=O)Cc2ccc(OCC(F)(F)F)cc2)n1 [Compound 20, 4-(2,2,2-trifluroethoxy)phenyl-N-(2-butyl-4-pyrimidinyl)acetamide]",80
6,"O=C(Cc1ccc(Oc2ccc(F)cc2)cc1)Nc1ccnc(C2CCC2)n1 [Compound 23, 4-(4-fluorophenoxy)phenyl-N-(2-cyclobutyl-4-pyrimidinyl)acetamide]",100
7,"CCc1nccc(NC(=O)Cc2ccc(Oc3ccc(Cl)cn3)cc2)n1 [Compound 37, 4-(5-chloro-2-pyridinyloxy)phenyl-N-(2-ethyl-4-pyrimidinyl)acetamide]",0

# System: Southern corn rootworm (Diabrotica undecimpuctata howardi Barber)
# Assay: whole plant or invertebrate
# Conditions: in Zea mays, soil, read-out: percent mortality, SCRW
row,Compound,mortality at 24 µg/g [%]
1,"CC(C)(C)c1nccc(NC(=O)Cc2ccc(Oc3ccc(F)cc3)cc2)n1 [Compound 25, 4-(4-fluorophenoxy)phenyl-N-(2-(1,1-dimethylethyl)-4-pyrimidinyl)acetamide]",100
2,"CCCCCCCCC(C)C(=O)Nc1ccnc(CC)n1 (stereo not shown) [Compound 33, N-(2-ethyl-4-pyrimidinyl)-2 methyldecamide]",0
3,CCCCCCCCCCCCCCCCCC(=O)Nc1ccnc(CC)n1 [Compound 34],0
4,"C=C(C)c1nccc(NC(=O)Cc2ccc(Oc3ccc(F)cc3)cc2)n1 [Compound 27, 4-(4-fluorophenoxy)phenyl-N-(2-(1-methylethenyl)-4-pyrimidinyl)acetamide]",0
5,"CCCCc1nccc(NC(=O)Cc2ccc(OCC(F)(F)F)cc2)n1 [Compound 20, 4-(2,2,2-trifluroethoxy)phenyl-N-(2-butyl-4-pyrimidinyl)acetamide]",100
6,"O=C(Cc1ccc(Oc2ccc(F)cc2)cc1)Nc1ccnc(C2CCC2)n1 [Compound 23, 4-(4-fluorophenoxy)phenyl-N-(2-cyclobutyl-4-pyrimidinyl)acetamide]",0
7,"CCc1nccc(NC(=O)Cc2ccc(Oc3ccc(Cl)cn3)cc2)n1 [Compound 37, 4-(5-chloro-2-pyridinyloxy)phenyl-N-(2-ethyl-4-pyrimidinyl)acetamide]",0

# System: two spotted spider mite (Tetranychus urticae)
# Assay: whole plant or invertebrate
# Conditions: 72 h, read-out: percent mortality, TSSM
row,Compound,mortality at 400 ppm [%]
1,"CC(C)(C)c1nccc(NC(=O)Cc2ccc(Oc3ccc(F)cc3)cc2)n1 [Compound 25, 4-(4-fluorophenoxy)phenyl-N-(2-(1,1-dimethylethyl)-4-pyrimidinyl)acetamide]",100
2,"CCCCCCCCC(C)C(=O)Nc1ccnc(CC)n1 (stereo not shown) [Compound 33, N-(2-ethyl-4-pyrimidinyl)-2 methyldecamide]",40
3,CCCCCCCCCCCCCCCCCC(=O)Nc1ccnc(CC)n1 [Compound 34],0
4,"C=C(C)c1nccc(NC(=O)Cc2ccc(Oc3ccc(F)cc3)cc2)n1 [Compound 27, 4-(4-fluorophenoxy)phenyl-N-(2-(1-methylethenyl)-4-pyrimidinyl)acetamide]",0
5,"CCc1nccc(NC(=O)Cc2ccc(Oc3ccc(C(C)=O)cc3)cc2)n1 [Compound 49, 4-(4-acetylphenoxy)phenyl-N-(2-ethyl-4-pyrimidinyl)acetamide]",100
6,"CCCCc1nccc(NC(=O)Cc2ccc(OCC(F)(F)F)cc2)n1 [Compound 20, 4-(2,2,2-trifluroethoxy)phenyl-N-(2-butyl-4-pyrimidinyl)acetamide]",0
7,"O=C(Cc1ccc(Oc2ccc(F)cc2)cc1)Nc1ccnc(C2CCC2)n1 [Compound 23, 4-(4-fluorophenoxy)phenyl-N-(2-cyclobutyl-4-pyrimidinyl)acetamide]",100
8,CCc1nccc(NC(=O)Cc2ccc(-c3ccccc3)cc2)n1 [Compound 40],0
9,"CCc1nccc(NC(=O)Cc2ccc(Oc3ccc(Cl)cn3)cc2)n1 [Compound 37, 4-(5-chloro-2-pyridinyloxy)phenyl-N-(2-ethyl-4-pyrimidinyl)acetamide]",0
10,"CCc1nccc(NC(=O)Cc2ccc(OC(F)F)cc2)n1 [Compound 42, 4-difluromethoxy-N-(2-ethyl-4-pyrimidinyl)acetamide]",100
11,"CCc1nccc(NC(=O)Cc2ccc(OCC(F)(F)C(F)F)cc2)n1 [Compound 43, 4-(2,2,3,3-tetrafluropropoxy)phenyl-N-(2-ethyl-4-pyrimidinyl)acetamide]",100
12,"CCCCCc1ccc(CC(=O)Nc2ccnc(CC)n2)cc1 [Compound 41, 4-pentylphenyl-N-(2-ethyl-4-pyrimidinyl)acetamide]",100
13,"CCCCOc1ccc(CC(=O)Nc2ccnc(CC)n2)cc1 [Compound 44, 4-butoxyphenyl-N-(2-ethyl-4-pyrimidinyl)acetamide]",90

# System: German cockroach (Blattella germanicus)
# Assay: whole plant or invertebrate
# Conditions: 240 h, read-out: percent mortality, GECR
row,Compound,mortality at 400 ppm [%]
1,"CC(C)(C)c1nccc(NC(=O)Cc2ccc(Oc3ccc(F)cc3)cc2)n1 [Compound 25, 4-(4-fluorophenoxy)phenyl-N-(2-(1,1-dimethylethyl)-4-pyrimidinyl)acetamide]",100
2,"CCCCCCCCC(C)C(=O)Nc1ccnc(CC)n1 (stereo not shown) [Compound 33, N-(2-ethyl-4-pyrimidinyl)-2 methyldecamide]",20
3,CCCCCCCCCCCCCCCCCC(=O)Nc1ccnc(CC)n1 [Compound 34],20
4,"C=C(C)c1nccc(NC(=O)Cc2ccc(Oc3ccc(F)cc3)cc2)n1 [Compound 27, 4-(4-fluorophenoxy)phenyl-N-(2-(1-methylethenyl)-4-pyrimidinyl)acetamide]",0
5,"CCCCc1nccc(NC(=O)Cc2ccc(OCC(F)(F)F)cc2)n1 [Compound 20, 4-(2,2,2-trifluroethoxy)phenyl-N-(2-butyl-4-pyrimidinyl)acetamide]",0
6,"O=C(Cc1ccc(Oc2ccc(F)cc2)cc1)Nc1ccnc(C2CCC2)n1 [Compound 23, 4-(4-fluorophenoxy)phenyl-N-(2-cyclobutyl-4-pyrimidinyl)acetamide]",100
7,"CCc1nccc(NC(=O)Cc2ccc(Oc3ccc(Cl)cn3)cc2)n1 [Compound 37, 4-(5-chloro-2-pyridinyloxy)phenyl-N-(2-ethyl-4-pyrimidinyl)acetamide]",100
